Results on seven compounds are retold here after paper PMC2860993 (PLoS ONE, 2010).

SMILES strings stand for the structures. Like-named read-outs stand apart in the source and are kept apart here.

The subject of data set [1] is recombinant luciferase-expressing CMV (Towne). Description: microbe, parasite or virus in culture. Particulars: for Selectivity index (SI): ratio between CC50 and EC50. It is filed as cell-based, human CMV. The method, then:
Human Foreskin Fibroblasts (HFF) passage 12–16 and human lung fibroblasts (HEL) passage 8–12 (from ATCC) were maintained in DMEM containing 10% fetal bovine serum and used for infections with the viruses.
The CMV strains used for infections were the highly-passaged Towne virus, and a clinical isolate obtained from the urine of a neonate with congenital CMV infection (SB) and passaged once in tissue culture. […] Initial experiments were performed using a recombinant human CMV-green fluorescent protein (GFP) virus, derived from Towne strain. This virus has a 9-kb deletion from the dispensable unique short (US) region from US1 to US12, and instead contains the bacterial artificial chromosome sequences and a GFP expression cassette. […] A recombinant virus expressing luciferase reporter gene under the control of UL99 (pp28) late promoter was generated by insertion of the reporter gene between the US9 and US10 ORFs in the Towne genome.
Towne-GFP, Towne–luciferase, and SB viruses were used in these assays. HFF or HEL were grown to subconfluent monolayers and infected with the CMV viruses at MOI 0.1 to 3. […] The concentration of each compound was calculated and adjusted by volume such that it was constant throughout the experiment. Following 90 minute incubation, media was replaced with fresh media containing the drug used. Infected and treated cells were incubated at 37°C in a 5% CO2 atmosphere for 3–10 days depending on the virus and the anti-viral assay. The recombinant luciferase-expressing virus was incubated for 72 hours, the GFP virus was incubated for 5 days, and the clinical isolate for 10 days. All experiments were subsequently repeated with compounds added to wells just after viral inoculation.

Data set [2] in a line: Cellular cytotoxicity, CellTiter-Glo Luminescent Cell Viability Assay. The class given is cell-based. Particulars: human. As to the method: Human Foreskin Fibroblasts (HFF) passage 12–16 and human lung fibroblasts (HEL) passage 8–12 (from ATCC) were maintained in DMEM containing 10% fetal bovine serum and used for infections with the viruses. Cells in concentrations of 5×10^4 and 1×10^4 were seeded 24 hours prior to infection on each well of 24-and 96-well plates respectively.
(ATP-based viability assays read luminescence as a measure of living cells.)

A further data set relates to Toxoplasmosis. Briefly: Anti-toxoplasmosis activity of compounds in supernatants of CMV infected cells. It is filed as cell-based, Toxoplasma gondii. Particulars: Human betaherpesvirus 5; supernatants of CMV infected cells at 3–5 days post infection. From the text:
To confirm that the difference in anti-CMV activity between monomers and dimers was not a result of instability of the monomers in tissue culture, we determined the anti-toxoplasmosis activity of these compounds in the supernatants of CMV infected cells at 3–5 days post infection.

Data set [3] relates to recombinant luciferase-expressing CMV. Description: Plaque reduction assay in human embryonic lung cells. It is filed as cell-based, human CMV. Particulars: 10 µM; HEL cells; luciferase virus; 10 days. The method, then: For plaque reduction assay, human embryonic lung cells were seeded into six-well plates and incubated at 37°C one day prior to infection with the recombinant luciferase-expressing CMV. Serial dilutions of GCV, artesunate and artefanilide were used. The virus was diluted to a desired concentration which gave 50–60 plaques per well. Medium was aspirated from the wells, and 0.2 ml of virus suspension was added to each well in triplicates. Plates were incubated for 90 minutes with shaking every 10 min, thereafter drugs were added and a methylcellulose overlay applied to each well. After incubation for 10 days, cells were stained with crystal violet. The stain was aspirated, wells were washed with phosphate-buffered saline, and plaques were counted.
In general terms: In a plaque reduction assay, fewer plaques than in the control indicate reduced infectivity or spread.

The test system of data set [4] is CMV IE1 protein expression. Briefly: Western blot for CMV immediate early protein IE1. The class given is cell-based, human CMV. Particulars: for IE1 expression: SB clinical isolate; for expression of IE1 and GFP: 100 µM, Towne-GFP, HFF, day 5 post infection. The method, then: Monoclonal antibodies to CMV immediate early proteins IE-1 and IE-2 (MAb810) and to cellular β-actin were purchased from Millipore (Billerica, MA). Confluent cells were infected with CMV in the presence of artemisinin compounds. At the indicated times cells were harvested in sample buffer (RIPA buffer, Tris 50 mM, Nacl 150 mM, SDS 0.1%, Na Deoxycholate 0.5%, NP40 1%, and protease inhibitor cocktail), boiled and loaded onto SDS-PAGE. Proteins were separated by electrophoresis and transferred to nitrocellulose membrane. After blocking, blots were probed with primary antibody (1∶3,000) overnight at 4°C in phosphate-buffered saline, and Tween. After washing 3 times, blots were probed with HRP-conjugated anti-mouse (Sigma), 1∶5,000 for 1 hour at room temperature. Blots were washed three times in phosphate-buffered saline/Tween, and then developed by enhanced chemiluminescence according to manufacturer protocol.
The expression of CMV immediate early (IE) protein was tested by western blot to determine whether artemisinins' inhibition of CMV replication occurs early in the virus life cycle. […] Further evidence for the early effect of artemisinins on IE1 protein expression was obtained with the clinical isolate (SB, Fig. 5b).
Western blot for IE1 and GFP performed at day 5 post infection. […] Western blot for IE1 was performed at 12 hr (MOI = 3), 24 hr and 48 hr (MOI = 1) post infection.
On the technique in general: In western blotting, separated proteins are transferred to a membrane and probed.

For the next data set, the system named is CMV clinical isolates. Further details: method as in PMID 11976732. Particulars: 11.1 µM ref 19; cited from earlier work.
[5] abbreviates: Human betaherpesvirus 5, read-out: EC50 (µM) - CMV.
[6] abbreviates: drug concentration that leads to 50% cellular cytotoxicity, mean and SD, at least five independent experiments, read-out: CC50.

For the compound `C[C@H]1[C@@H](CC(C[C@H]2O[C@@H]3O[C@@]4(C)CC[C@H]5[C@H](C)CC[C@@H]([C@H]2C)[C@@]35OO4)CS(=O)(=O)c2ccc(COC(=O)N(C)C)cc2)O[C@@H]2O[C@@]3(C)CC[C@H]4[C@H](C)CC[C@@H]1[C@@]24OO3` (some centres unmarked) [Dimer sulfone carbamate (6), dimer sulfone dimethyl carbamate], the concentration giving a half-maximal response (EC50) (as a rule, the concentration at which the effect is half-maximal) in data set [1] (Human betaherpesvirus 5, 72 h) was 0.06 µM. Moreover, the “selectivity relative to GCV” value in data set [1] (comparison of SI, Table 1) was “approximately 10 times”. Also, in data set [1], the “Selectivity index (SI)” value turned out to be 508±173. Besides, the midpoint of cytotoxicity in data set [2], the CC50, lay at 28.1 ± 9.6 µM.
For `C[C@H]1[C@@H](CCC(=O)Nc2ccc(F)cc2)O[C@@H]2O[C@@]3(C)CC[C@H]4[C@H](C)CC[C@@H]1[C@@]24OO3` [Artefanilide (3), artefanilide], in data set [1] (Human betaherpesvirus 5, 72 h), the EC50 amounted to 8.1 ± 2.2 µM. In data set [1], the “Selectivity index (SI)” value is 5.5±1.6. Half-maximal cytotoxicity in data set [2] (CC50) was put at 44.9 ± 3.4 µM.
`CO[C@H]1O[C@@H]2O[C@@]3(C)CC[C@H]4[C@H](C)CC[C@@H]([C@H]1C)[C@@]24OO3` [Artemether (2c), artemether]: the EC50 was 5.3 ± 2.7 µM in data set [1] (Human betaherpesvirus 5, 72 h); 5.1 ± 2.1 µM in data set [1] (setting [5]); 0.58 ± 0.22 µM with Toxoplasmosis. Also, the “Selectivity index (SI)” value in data set [1] was 3.5±2.2. Half-maximal cytotoxicity in data set [2] (CC50) was put at 18.4 ± 7.5 µM.
`Nc1nc(O)c2ncn(COC(CO)CO)c2n1` [GCV, Ganciclovir]: the EC50 in data set [1] (Human betaherpesvirus 5, 72 h) is 5.6 ± 0.2 µM. The CC50 (usually the concentration giving 50% cytotoxicity) in data set [2] (setting [6]) is 247 ± 33.4 µM. Further, the “reduction in plaque formation” value in data set [3] is 80%. Further, the IE1 expression result in data set [4] (10 µM, MOI = 1, 24 and 48 hr) is on record as “not affected”.
For `C[C@H]1[C@@H](CC(CO)C[C@H]2O[C@@H]3O[C@@]4(C)CC[C@H]5[C@H](C)CC[C@@H]([C@H]2C)[C@@]35OO4)O[C@@H]2O[C@@]3(C)CC[C@H]4[C@H](C)CC[C@@H]1[C@@]24OO3` (some centres unmarked) [Dimer primary alcohol (4), dimer primary alcohol], the EC50 in data set [1] (Human betaherpesvirus 5, 72 h) worked out at 0.15 ± 0.02 µM; in data set [1] (setting [5]), 0.16 ± 0.04 µM; with Toxoplasmosis, 0.4 ± 0.15 µM. In data set [1], the “Selectivity index (SI)” value is given as 380±53. In data set [2], this compound yielded a CC50 of 57 ± 2.3 µM. For the same compound, the IE1 expression result in data set [4] (1 µM, MOI = 1, 24 and 48 hr) is listed as “significantly reduced”; in data set [4] (1 µM, MOI = 3, 12 hours post infection), “inhibition of IE1 expression”.
Consider `C[C@@H]1CC[C@H]2[C@@H](C)C(=O)O[C@@H]3O[C@@]4(C)CC[C@@H]1[C@]32OO4` [Artemisinin (1), artemisinin], for which the concentration for a half-maximal effect (EC50) stood at 16.8 ± 4 µM in data set [1] (Human betaherpesvirus 5, 72 h); 15.7 ± 4.5 µM in data set [1] (setting [5]); 4.1 ± 1.1 µM with Toxoplasmosis. The CC50 in data set [2] (setting [6]) amounted to 72.4 ± 15.7 µM. Moreover, the “expression of IE1 and GFP” value in data set [4] (MOI of 0.1) is recorded as “undetectable”; in data set [4] (MOI of 0.5), “decreased”.
Consider `C[C@H]1[C@H](OC(=O)CCC(=O)O)O[C@@H]2O[C@@]3(C)CC[C@H]4[C@H](C)CC[C@@H]1[C@@]24OO3` [Artesunate (2d), artesunate], for which the 50% effective concentration (EC50) was found to be 18.5 ± 5.2 µM in data set [1] (Human betaherpesvirus 5, 72 h); 17.2 ± 3.4 µM in data set [1] (setting [5]); 3.2 ± 0.8 µM with Toxoplasmosis. For the same compound, in data set [1], the “Selectivity index (SI)” value worked out at 4.2±2.2. For the same compound, in data set [2] (setting [6]), the CC50 turned out to be 77.5 ± 14.4 µM. In the data set with CMV clinical isolates, the “in-vitro inhibition of clinical isolates” value is reported as 50–80%.
